Assay results: patent publication US20040010026A1, “(R) 2-(4-amidinophenylaminomethyl)-1-methyl-5-[1-(carboxymethylamino)-1 (pyrrolidinocarbonyl)-ethyl]-benzimidazole, the monohydrochloride thereof, preparation thereof and the use as pharmaceutical composition” (Boehringer Ingelheim Pharma GmbH & Co. KG, priority 2002, published 2004)
Structures can show the parent of a compound that is named as a salt.

Columns and labels:
[1] = Solid stress stability of the free base and of the corresponding monohydrochloride; format: physicochemical; settings: for decomposition under temperature and relative humidity stress / decomposition under temperature stress / decomposition under light stress: solid, open glass dish; for decomposition under temperature and relative humidity stress: 70° C., approx. 90% relative humidity, 3 days; for decomposition under temperature stress: 105° C., 24 hours; for decomposition under light stress: Suntester xenon lamp, 22-24 hours
Description: Solid stress stability data of the free base and of the corresponding monohydrochloride

[2] = Solubility in physiologically acceptable solvents; format: physicochemical

Row | decomposition under temperature and relative humidity stress [1] | decomposition under temperature stress [1] | decomposition under light stress [1] | solubility [2] | stability (general statement) [1] | SMILES
1 | approx. 4% | approx. 1% | approx. 1% | – | – | Cn1c(CNc2ccc(C(=N)N)cc2)nc2cc([C@@](C)(NCC(=O)O)C(=O)N3CCCC3)ccc21 [Free base, (R)-2-(4-Amidinophenylaminomethyl)-1-methyl-5-[1-(carboxymethylamino)-1-(pyrrolidinocarbonyl)-ethyl]-benzimidazole]
2 | no decompo- | no decompo- | (<1%) | dissolves very easily | high degree of stability | Cn1c(CNc2ccc(C(=N)N)cc2)nc2cc([C@@](C)(NCC(=O)O)C(=O)N3CCCC3)ccc21 [monohydrochloride, (R)-2-(4-Amidinophenylaminomethyl)-1-methyl-5-[1-(carboxymethylamino)-1-(pyrrolidinocarbonyl)-ethyl]-benzimidazole-monohydrochloride]
